These are literature values, as cited in EP2932963A1, “Stable pharmaceutical dosage forms comprising Levothyroxine sodium” (Uni-Pharma Kleon Tsetis Pharmaceutical Laboratories S.A., priority 2014, dated 2015).

Like-named read-outs stand apart in the source and are kept apart here.

In general, pKa refers to the pH at which an ionisable group is half protonated.

The conditions of series [1]: dependence on pH.

For the compound `N[C@@H](Cc1cc(I)c(Oc2cc(I)c(O)c(I)c2)c(I)c1)C(=O)O` [Levothyroxine], in series [1], the aqueous solubility entry is “reduces from pH 1 to 3 and increases above pH 7”. Besides, the pKa (amino group) is on record as 9.96, the pKa (carboxyl group) was 2.4 and the pKa (phenolic group) was 6.87.
